Measured values taken from publication PMC10714390, “Quinoline Compounds Targeting the c-Ring of ATP Synthase Inhibit Drug-Resistant Pseudomonas aeruginosa” (ACS Infectious Diseases, 2023).
Where “and” joins values, the source holds several entries; their conditions need not be identical. Identical values can stand only once. Like-named read-outs stand apart in the source and are kept apart here.

Tests used:
PA ATP synthase [1] = target: T1, PA ATP synthase (Pseudomonas aeruginosa, UniProt Q9HT15); assay: NADH-driven ATP synthesis inhibition, PA inverted membrane vesicles; assay type: biochemical; conditions: inhibition of ATP synthesis activity
T1 construct: Inverted membrane vesicles were prepared from PA 9027; endogenous in cells; host or cells: Pseudomonas aeruginosa ATCC 9027, inverted membrane vesicles
Description: (§1) Vesicles were prepared from P. aeruginosa and transformed E. coli cells as previously described.[22] Briefly, cells were grown in LB liquid medium at 37 °C with shaking and harvested by centrifugation after 7 h of growth. Cultures of transformant E. coli included 100 μg/mL ampicillin. Cells were disrupted in TMG buffer (50 mM Tris-HCl, MgCl2, 10% (v/v) glycerol, pH 7.5) using an Avestin B15 homogenizer at 19,000 psi. After unbroken cells and debris were cleared by centrifugation at 9000g, inverted vesicles were collected by centrifugation at 193,000g, resuspended in TMG buffer, and stored at −80 °C. Protein concentrations were determined using a modified Lowry assay.[25]
(§2) Continuous ATP synthesis activity of inverted membrane vesicles was measured using a luciferin/luciferase luminescence assay as previously described.[22] Inhibition of ATP synthesis activity by test compounds was determined using an end point assay essentially as previously described.[18],[26] In this assay, the synthesis reaction was initiated by 2.5 mM NADH, proceeded for 10 min, and was stopped with 1% trichloroacetic acid, 2 mM CCCP, and 10 mM EDTA. Samples from each reaction were diluted 500-fold prior to the addition of luciferase since quinoline compounds are known to inhibit luciferase.[27] This dilution was sufficient to minimize inhibition of luciferase (Figure S4). Each replicate set included a positive control containing DMSO with no compound and a negative control containing carbonyl cyanide m-chlorophenyl hydrazone. Luminescence values were corrected for the background by subtracting the negative control and then normalized to the positive control within the same replicate. Dose–response curves were fit using eq 1, where activity is the relative ATP synthesis activity, [I] is the concentration of inhibitor in μg/mL, and n is the Hill coefficient. [drawing 1] 1

[2] = target: T2, PA ATP synthase expressed in E. coli DK8/pASH20 (Pseudomonas aeruginosa, UniProt Q9HT15); assay: NADH-driven ATP synthesis inhibition, DK8/pASH20 membrane vesicles; assay type: biochemical
T2 construct: expressed in transfected cells; host or cells: E. coli K-12 DK8 (lacks its own ATP synthase) transformed with pASH20 (pBR322 derivative)
Description: (§3) P. aeruginosa (ATCC 9027) was streaked onto a 10% TSB agar plate and incubated at room temperature for 72 h. A single colony was resuspended in 100 μL of H2O, and 5 μL was used as the DNA template for PCR with Q5 polymerase (NEB) and […] each of forward and reverse primers. Primers were complementary to regions flanking the atp operon and included sequences for HindIII and NdeI restriction sites (see the SI for primer sequences). The resulting 6.9 kbp DNA fragment was digested with HindIII and NdeI and ligated into digested vector pBR322 (New England Biolabs). The resultant pASH20(-i) plasmid contains a partial atpI gene. To complete the atpI gene, the HindII-XhoI fragment of pASH20(-i) was replaced with a synthetic fragment with a complete atpI (Twist Bioscience) to yield pASH20. The sequence of the entire operon was verified by Sanger DNA sequencing through the ligation sites. Subunit c mutations were introduced by exchanging the XhoI-BamHI fragment containing atpE with a synthetic fragment containing mutated atpE (Twist Bioscience).
as §1, §2

[3] = target: T3, PA ATP synthase cIle65Ala mutant (Pseudomonas aeruginosa, UniProt Q9HT15, I65A); assay: NADH-driven ATP synthesis inhibition, DK8/pASH20 cI65A membrane vesicles; assay type: biochemical
T3 construct: expressed in transfected cells; host or cells: E. coli K-12 DK8 transformed with pASH20 carrying mutated atpE
Description: as §3, §1, §2

[4] = target: T4, PA ATP synthase cIle65Phe mutant (Pseudomonas aeruginosa, UniProt Q9HT15, I65F); assay: NADH-driven ATP synthesis inhibition, DK8/pASH20 cI65F membrane vesicles; assay type: biochemical
T4 construct: expressed in transfected cells; host or cells: E. coli K-12 DK8 transformed with pASH20 carrying mutated atpE
Description: as §3, §1, §2

[5] = test system: EC electron transport chain; assay: Electron transport activity (NADH-driven H+ pumping, ACMA quenching), E. coli DK8/pASH20 vesicles; assay type: biochemical, Escherichia coli
Description: Determination of electron transport activity. In an opaque black 96-well plate, inverted membrane
vesicles from PA or E. coli DK8 pASH20 were added to HMK buffer containing 0.3 µg/mL 9-amino-6-chloro-
2-methoxyacridine (ACMA) and 0-64 µg/mL test compound in DMSO. After measurement of baseline
ACMA fluorescence for 60 s, redox-driven H+ pumping was initiated by addition of NADH to 0.8 mM, and
fluorescence quenching was monitored for 120 s before addition of nigericin to 0.5 µg/mL. Relative
activity is reported as the minimum fluorescence value normalized to the maximum fluorescence value
following addition of nigericin. […]

E. coli (ATCC 25922) = test system: E. coli (ATCC 25922); set-up: method as in PMID 35990476; conditions: cited from earlier work
[6] = test system: P. aeruginosa (ATCC 9027); set-up: method as in PMID 35990476; conditions: cited from earlier work
[7] = test system: P. aeruginosa efflux knockout GKCW120 (PΔ6); set-up: method as in PMID 35990476; conditions: cited from earlier work
PA ATP synthase [8] = target: T1, PA ATP synthase; set-up: method as in PMID 35990476; conditions: PA membrane vesicles; cited from earlier work
[9] = test system: PA electron transport chain; set-up: method as in PMID 35990476; conditions: PA vesicles; cited from earlier work
[10] = test system: P. aeruginosa (ATCC 9027); assay: Antimicrobial susceptibility (broth microdilution), PA 9027; assay type: cell-based, Pseudomonas aeruginosa; conditions: Pseudomonas aeruginosa, ATCC9027; n = 3; >85% reduction in growth at OD 590 nm; read-out: antibacterial activity (MIC) PA 9027
Description: (§4) The following are general steps, unless otherwise noted. All steps were completed using aseptic techniques. All media and glassware were sterilized via an autoclave at 121 °C for 60 min. All agitation occurred at 160 rpm in a temperature-controlled console shaker (Excella E25) at 37 °C. Full-strength tryptic soy broth (TSB) was made by dissolving 30 g of BD Bacto TSB powder in 1 L of deionized water. Purchased and acquired bacterial strains used were E. coli (ATCC 25922), P. aeruginosa (ATCC 9027), drug-resistant P. aeruginosa from ATCC Panel MP-23 (BAA 2108, BAA 2109, BAA 2110), and P. aeruginosa efflux knockout GKCW120 (PΔ6)[6] provided by Zgurskaya and co-workers at the University of Oklahoma.
(§5) Susceptibility testing was performed in biological triplicate using the broth microdilution method as outlined by the Clinical and Laboratory Standards Institute. […] Briefly, to each well, 1 μL of compound in DMSO, 89 μL of TSB, and 10 μL of bacterial inoculum, grown from a single colony in 10 mL of TSB for 4–6 h, were added. After incubation for 12–15 h at 37 °C, absorbance at 590 nm was read on a Biotek Synergy HTX Multimode plate reader. Data were processed by background subtracting the media absorbance and then normalizing the data to full bacterial growth with the vehicle only. MIC is defined as the lowest concentration of antibiotic or antibiotic/adjuvant combination that achieves ≥85% growth inhibition, which corresponds to no visible growth.
(§6) Initial antibacterial activity screen of compounds 4, 5, and S1-S6
(§7) Compounds 4, 5, and S1-S6 were screened for initial antibiotic activity against a susceptible laboratory strain of EC (designated EC 25922), and non-virulent, biofilm forming strain of PA (designated PA 9027), and PD6 (efflux knockout strain6) at 128 µg/mL in DMSO. Sterilization and Antimicrobial Susceptibility Assay procedures utilized were the same as described in the methods.
(§8) Table S1. Antibacterial activity screening results for compounds 4, 5, and S1-S6 at 128 µg/mL
(§9) Table S1. Antibacterial activity screening results for compounds 4, 5, and S1-S6 at 128 µg/mL.

[11] = test system: P. aeruginosa efflux knockout GKCW120 (PΔ6); assay: Antimicrobial susceptibility (broth microdilution), PΔ6 efflux knockout; assay type: cell-based, Pseudomonas aeruginosa; conditions: n = 3; >85% reduction in growth at OD 590 nm
Description: as §4, §5, §6, §7, §8, §9

[12] = test system: drug-resistant P. aeruginosa BAA 2108; assay: Antimicrobial susceptibility (broth microdilution), BAA 2108; assay type: cell-based, Pseudomonas aeruginosa; conditions: Pseudomonas aeruginosa, BAA2108, read-out: antibacterial activity (MIC) BAA 2108
Description: as §4, §5

[13] = test system: drug-resistant P. aeruginosa BAA 2109; assay: Antimicrobial susceptibility (broth microdilution), BAA 2109; assay type: cell-based, Pseudomonas aeruginosa; conditions: Pseudomonas aeruginosa, BAA2109, read-out: antibacterial activity (MIC) BAA 2109
Description: as §4, §5

[14] = test system: drug-resistant P. aeruginosa BAA 2110; assay: Antimicrobial susceptibility (broth microdilution), BAA 2110; assay type: cell-based, Pseudomonas aeruginosa; conditions: Pseudomonas aeruginosa, BAA2110, read-out: antibacterial activity (MIC) BAA 2110
Description: as §4, §5

[15] = inhibition of ATP synthesis activity

Compound | Hill coefficient of dose response fit, PA vesicles (PA ATP synthase [1]) | IC50 ([2]; ATP synthesis IC50, DK8/pASH20 vesicles, wild-type PA ATP synthase in E. coli DK8, NADH-driven, end point luminescence assay) | Hill coefficient of dose response fit, DK8/pASH20 vesicles [2, 15] | IC50 ([3]; ATP synthesis IC50, DK8/pASH20 cI65A vesicles, cI65A mutant, NADH-driven, luminescence assay) [µM] | Hill coefficient of dose response fit, DK8/pASH20 cI65A vesicles [3, 15] | IC50 [4] [µM] | Hill coefficient of dose response fit, DK8/pASH20 cI65F vesicles [4, 15] | inhibition of EC ETC-driven H+ pumping, in words ([5]; 0-64 µg/mL, Figure S2) | Inhibition of the EC electron transport chain IC50 ([5]; EC (DK8/pASH20) vesicles) [µg/mL] | antibacterial activity (MIC) EC 25922 (E. coli (ATCC 25922)) [µg/mL] | antibacterial activity (MIC) PA 9027 [6] [µg/mL] | antibacterial activity (MIC) PΔ6 [7] [µg/mL] | PA ATP synthesis IC50 (PA ATP synthase [8]) [µg/mL] | Inhibition of the PA electron transport chain IC50 [9] | MIC [10] [µg/mL] | antibacterial activity (MIC) PΔ6 [11] [µg/mL] | MIC [12] [µg/mL] | MIC [13] [µg/mL] | MIC [14] [µg/mL]
COC(=O)[C@H](Cc1ccc(O)cc1)NCc1cc2ccccc2nc1SC [Compound 1, reference compound] | 1.4 | 27.7 µM and 28.8 µM | 1.3 | 18 | 1.1 | 22 | 1.4 | did not inhibit the electron transport chain strongly | >64 | >128 | >256 | >256 | 10.0 | >64[18] μg/mL | – | – | – | – | –
CNC(C)C1CCC(N)C(OC2C(N)CC(N)C(OC3OCC(C)(O)C(NC)C3O)C2O)O1 (stereo not shown) [gentamicin, reference compound] | – | – | – | – | – | – | – | – | – | – | – | – | – | – | 2 to 4 | >4 | 16 | 2 | 4 to 8
